Experimental data published in PubChem BioAssay (NCI).
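Five compound concentrations were applied to cells in 96-well plates for 48 hours; endpoints were derived by simple linear interpolation of the resulting dose-response curve. At the TGI there is no net growth.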

Tests used:
Test in all cases: NCI-60 cell line screen, 48 h
A498 renal = tested on: A498 renal
NCI-H226 lung = tested on: NCI-H226 lung
OVCAR-3 ovarian = tested on: OVCAR-3 ovarian
M14 melanoma = tested on: M14 melanoma
SK-MEL-5 melanoma = tested on: SK-MEL-5 melanoma
SW-620 colon = tested on: SW-620 colon
SK-MEL-2 melanoma = tested on: SK-MEL-2 melanoma
MDA-MB-231 breast = tested on: MDA-MB-231 breast
SK-MEL-28 melanoma = tested on: SK-MEL-28 melanoma
OVCAR-5 ovarian = tested on: OVCAR-5 ovarian
NCI/ADR-RES ovarian = tested on: NCI/ADR-RES ovarian
SF-539 CNS = tested on: SF-539 CNS
EKVX NSCLC = tested on: EKVX NSCLC
CCRF-CEM leukemia = tested on: CCRF-CEM leukemia
T-47D breast = tested on: T-47D breast
SK-OV-3 ovarian = tested on: SK-OV-3 ovarian
RXF 393 renal = tested on: RXF 393 renal
K-562 leukemia = tested on: K-562 leukemia
DU-145 prostate = tested on: DU-145 prostate
MOLT-4 leukemia = tested on: MOLT-4 leukemia
HCT-15 colon = tested on: HCT-15 colon
MALME-3M melanoma = tested on: MALME-3M melanoma
A549 NSCLC = tested on: A549 NSCLC
HT29 colon = tested on: HT29 colon
UACC-257 melanoma = tested on: UACC-257 melanoma
NCI-H460 lung = tested on: NCI-H460 lung
KM12 colon = tested on: KM12 colon
MCF7 breast = tested on: MCF7 breast
NCI-H522 lung = tested on: NCI-H522 lung
LOX IMVI melanoma = tested on: LOX IMVI melanoma
SF-295 CNS = tested on: SF-295 CNS
COLO 205 colon = tested on: COLO 205 colon
U251 CNS = tested on: U251 CNS
SF-268 CNS = tested on: SF-268 CNS
TK-10 renal = tested on: TK-10 renal
PC-3 prostate = tested on: PC-3 prostate
SR leukemia = tested on: SR leukemia
OVCAR-8 ovarian = tested on: OVCAR-8 ovarian
UACC-62 melanoma = tested on: UACC-62 melanoma
OVCAR-4 ovarian = tested on: OVCAR-4 ovarian
MDA-MB-435 = tested on: MDA-MB-435
MDA-N = tested on: MDA-N
SN12C renal = tested on: SN12C renal
HCC-2998 colon = tested on: HCC-2998 colon
UO-31 renal = tested on: UO-31 renal
NCI-H23 lung = tested on: NCI-H23 lung
HCT-116 colon = tested on: HCT-116 colon
ACHN renal = tested on: ACHN renal
CAKI-1 renal = tested on: CAKI-1 renal
IGROV1 ovarian = tested on: IGROV1 ovarian
SNB-75 CNS = tested on: SNB-75 CNS
SNB-19 CNS = tested on: SNB-19 CNS
786-0 renal = tested on: 786-0 renal
HOP-62 NSCLC = tested on: HOP-62 NSCLC
BT-549 breast = tested on: BT-549 breast
HS 578T breast = tested on: HS 578T breast
HOP-92 NSCLC = tested on: HOP-92 NSCLC
RPMI-8226 leukemia = tested on: RPMI-8226 leukemia

Measured: TGI

O=C1C(=Nc2ccccc2)Oc2cc(O)ccc21
> 100 µM: A498 renal | NCI-H226 lung | OVCAR-3 ovarian | M14 melanoma | SK-MEL-5 melanoma | SW-620 colon | SK-MEL-2 melanoma | MDA-MB-231 breast | SK-MEL-28 melanoma | OVCAR-5 ovarian | NCI/ADR-RES ovarian | SF-539 CNS | EKVX NSCLC | CCRF-CEM leukemia | T-47D breast | SK-OV-3 ovarian | RXF 393 renal | K-562 leukemia | DU-145 prostate | MOLT-4 leukemia | HCT-15 colon | MALME-3M melanoma | A549 NSCLC | HT29 colon | UACC-257 melanoma | NCI-H460 lung | KM12 colon | MCF7 breast | NCI-H522 lung | LOX IMVI melanoma | SF-295 CNS | COLO 205 colon | U251 CNS | SF-268 CNS | TK-10 renal | PC-3 prostate | SR leukemia | OVCAR-8 ovarian | UACC-62 melanoma | OVCAR-4 ovarian | MDA-MB-435 | MDA-N | SN12C renal | HCC-2998 colon | UO-31 renal | NCI-H23 lung | HCT-116 colon | ACHN renal | CAKI-1 renal | IGROV1 ovarian | SNB-75 CNS | SNB-19 CNS | 786-0 renal | HOP-62 NSCLC

O=C1CC(C(=O)N2CCCCC2)n2c(=O)n(-c3ccccc3)c(=O)n2C1 (stereo not drawn)
> 100 µM: NCI-H226 lung | OVCAR-3 ovarian | M14 melanoma | SK-MEL-5 melanoma | MDA-MB-231 breast | OVCAR-5 ovarian | NCI/ADR-RES ovarian | SF-539 CNS | EKVX NSCLC | SK-OV-3 ovarian | RXF 393 renal | BT-549 breast | DU-145 prostate | HS 578T breast | HCT-15 colon | MALME-3M melanoma | A549 NSCLC | HT29 colon | UACC-257 melanoma | NCI-H460 lung | KM12 colon | MCF7 breast | NCI-H522 lung | LOX IMVI melanoma | SF-295 CNS | COLO 205 colon | SF-268 CNS | TK-10 renal | PC-3 prostate | OVCAR-8 ovarian | UACC-62 melanoma | MDA-N | HCC-2998 colon | UO-31 renal | NCI-H23 lung | HCT-116 colon | ACHN renal | CAKI-1 renal | IGROV1 ovarian | SNB-75 CNS | SNB-19 CNS | 786-0 renal | HOP-62 NSCLC

O=C1[C@@H]2C[C@@H](O)CN2C(=O)c2ccccc2N1CCCO
> 100 µM: A498 renal | NCI-H226 lung | OVCAR-3 ovarian | M14 melanoma | SW-620 colon | SK-MEL-2 melanoma | MDA-MB-231 breast | SK-MEL-28 melanoma | OVCAR-5 ovarian | NCI/ADR-RES ovarian | SF-539 CNS | EKVX NSCLC | T-47D breast | SK-OV-3 ovarian | K-562 leukemia | DU-145 prostate | MOLT-4 leukemia | HS 578T breast | HCT-15 colon | A549 NSCLC | HT29 colon | UACC-257 melanoma | NCI-H460 lung | KM12 colon | MCF7 breast | NCI-H522 lung | LOX IMVI melanoma | HOP-92 NSCLC | SF-295 CNS | U251 CNS | SF-268 CNS | TK-10 renal | PC-3 prostate | OVCAR-8 ovarian | RPMI-8226 leukemia | UACC-62 melanoma | MDA-MB-435 | MDA-N | SN12C renal | UO-31 renal | HCT-116 colon | ACHN renal | IGROV1 ovarian | SNB-75 CNS | SNB-19 CNS | 786-0 renal | HOP-62 NSCLC

C[n+]1cccc2ccc(OC(=O)c3ccccc3)cc21
> 100 µM: A498 renal | NCI-H226 lung | OVCAR-3 ovarian | M14 melanoma | SK-MEL-5 melanoma | SW-620 colon | SK-MEL-2 melanoma | OVCAR-5 ovarian | NCI/ADR-RES ovarian | SF-539 CNS | EKVX NSCLC | T-47D breast | SK-OV-3 ovarian | RXF 393 renal | K-562 leukemia | DU-145 prostate | MOLT-4 leukemia | HS 578T breast | HCT-15 colon | MALME-3M melanoma | A549 NSCLC | HT29 colon | UACC-257 melanoma | KM12 colon | MCF7 breast | NCI-H522 lung | LOX IMVI melanoma | HOP-92 NSCLC | SF-295 CNS | COLO 205 colon | SF-268 CNS | TK-10 renal | OVCAR-8 ovarian | RPMI-8226 leukemia | UACC-62 melanoma | OVCAR-4 ovarian | MDA-MB-435 | MDA-N | SN12C renal | UO-31 renal | NCI-H23 lung | HCT-116 colon | ACHN renal | CAKI-1 renal | IGROV1 ovarian | SNB-75 CNS | SNB-19 CNS | 786-0 renal | HOP-62 NSCLC
